The numbers were not newly measured in patent US20030175883A1, “DNA encoding a mammalian LPA receptor and uses thereof” (priority 1997, published 2003), which cites them from elsewhere.

The subject of data set [1] is LPA binding sites in membranes from 3T3 cells. The conditions noted are these: Thomson et al., 1994.
The target of data set [2] is LPA binding sites in membranes from rat brain. The conditions noted are these: Thomson et al., 1994.

As for 1-acyl-glycerol-3-phosphate [LPA], the Kd result in data set [1] and in data set [2] was “low nanomolar range” each time.
